Patent US20130253056A1, “Continuous Administration of Levodopa and/or Dopa Decarboxylase Inhibitors and Compositions for Same” (NEURODERM, LTD., priority 2009, published 2013)

How the values were obtained:
[1] = cited from earlier work
[2] = mice
Method: Mice were implanted subcutaneously with Alzet pumps containing Saline (Negative Control), Vehicle or Carbidopa solution. A day following implantation LD/CD was administered orally Q8 h. The level of levodopa and dopamine in the brain was determined following the 4th oral dose of LD/CD.

[3] = man, monkey and dog; cited from earlier work
[4] = Effect of continuous subcutaneous carbidopa on pharmacokinetics of levodopa and carbidopa in pigs
Description: (§1) In this experiment, the purpose was to determine the effect of continuous subcutaneous administration of carbidopa, with co-administration of oral L-dopa/carbidopa, on the pharmacokinetics of levodopa in pigs.

[5] = in vivo
Description: as §1

[6] = in vivo, sc
[7] = continuous subcutaneous carbidopa co-administered with any oral LD preparation

## C[C@@](Cc1ccc(O)c(O)c1)(NN)C(=O)O [Carbidopa, (−)-L-α-hydrazino-α-methyl-β-(3,4-dihydroxybenzene)propanoic acid monohydrate]
[1]
  solubility in alcohol, chloroform or ether: practically insoluble
  solubility in water: only slightly soluble in water
[2]; oral LD/CD with continuous SC carbidopa 15 mg/kg/d
  levels of plasma LD: higher levels of plasma LD
[2]; seven hours post oral LD (LD/CD 32/8 mg/kg TID), continuous SC carbidopa 15 mg/kg/d
  dopamine levels in the brain: significantly higher
[3]
  fraction of an oral dose absorbed: 40-70%
[4]
  effect of increased carbidopa oral dose or frequency on the PK profile of levodopa: did not considerably improve
[4]; [7]
  increase of the AUC of levodopa: > 2 ×
  increase of the half live (t½) of levodopa: > 2 ×
[5]
  treatment related local or systemic toxicity: No signs of treatment related local or systemic toxicity were observed
[6]
  histological analysis of infusion sites (local tolerance): No histological treatment-related abnormalities were observed
